# Patent US9468661B2, “Pyrrolidine derivatives and their use as complement pathway modulators” (priority 2012, dated 2016)
# Target: human factor D (Homo sapiens (Human), UniProt P00746)
# Experiment: biochemical
# Type: biochemical
# Settings: Factor D inhibition data using Method 1; recombinant human factor D 10 nM, substrate Z-Lys-thiobenzyl, fluorescence; read-out: IC50
# Protocol: Human Complement Factor D Assay: Method 1
# Recombinant human factor D (expressed in E. coli and purified using standard methods) at 10 nM concentration is incubated with test compound at various concentrations for 1 hour at room temperature in 0.1 M Hepes buffer, pH 7.5, containing 1 mM MgCl2, 1 M NaCl and 0.05% CHAPS. A synthetic substrate Z-Lys-thiobenzyl and 2,4-dinitrobenzenesulfonyl-fluoresceine are added to final concentrations of 200 μM and 25 μM, respectively. The increase in fluorescence is recorded at excitation of 485 nm and emission at 535 nm in a microplate spectrofluorimeter. IC50 values are calculated from percentage of inhibition of complement factor D-activity as a function of test compound concentration.
# Sequence of human factor D (P00746 26-253): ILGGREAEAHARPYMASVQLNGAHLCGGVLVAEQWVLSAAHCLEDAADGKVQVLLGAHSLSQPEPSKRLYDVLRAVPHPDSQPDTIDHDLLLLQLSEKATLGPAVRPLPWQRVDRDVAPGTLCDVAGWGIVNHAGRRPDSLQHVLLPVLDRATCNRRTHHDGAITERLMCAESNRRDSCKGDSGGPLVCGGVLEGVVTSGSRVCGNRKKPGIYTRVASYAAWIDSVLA
row,SMILES,IC50
1,"CC1CCCC1CNC(=O)[C@@H]1C[C@H]2C[C@H]2N1C(=O)Cn1nc(C(N)=O)c2ccncc21 (single isomer, unassigned; dia 3) [Example 87]",459 nM
2,"CC1CCCC(CNC(=O)[C@@H]2C[C@H]3C[C@H]3N2C(=O)Cn2nc(C(N)=O)c3ccncc32)C1 (single isomer, unassigned; dia 1) [Example 115]",877 nM
3,"CC(=O)c1nn(CC(=O)N2[C@@H]3C[C@@H]3C[C@H]2C(=O)NC[C@H]2CC2(Cl)Cl)c2ccc(OCc3ncccc3F)cc12 [Example 99, (1R,3S,5R)-2-{2-[3-Acetyl-5-(3-fluoro-pyridin-2-ylmethoxy)-indazol-1-yl]-acetyl}-2-aza-bicyclo[3.1.0]hexane-3-carboxylic acid ((R)-2,2-dichloro-cyclopropylmethyl)-amide]",32 nM
4,"NC(=O)c1nn(CC(=O)N2[C@@H]3C[C@@H]3C[C@H]2C(=O)NC[C@H]2CC2(Cl)Cl)c2ccncc12 [Example 95, 1-(2-{(1R,3S,5R)-3-[((R)-2,2-Dichlorocyclopropylmethyl)-carbamoyl]-2-aza-bicyclo[3.1.0]hex-2-yl}-2-oxo-ethyl)-1H-pyrazolo[4,3-c]pyridine-3-carboxylic acid amide]",482 nM
5,"CC(=O)c1nn(CC(=O)N2[C@@H]3C[C@@H]3C[C@H]2C(=O)NC[C@H]2C(C)(C)C2(Cl)Cl)c2ccc(OCc3ncccn3)cc12 [Example 104, (1R,3S,5R)-2-{2-[3-Acetyl-5-(pyrimidin-2-ylmethoxy)-indazol-1-yl]-acetyl}-2-aza-bicyclo[3.1.0] hexane-3-carboxylic acid ((R)-2,2-dichloro-3,3-dimethyl-cyclopropylmethyl)-amide]",16 nM
6,"CC(=O)c1nn(CC(=O)N2[C@@H]3C[C@@H]3C[C@H]2C(=O)N[C@H](C)[C@H]2CC2(Cl)Cl)c2ccc(OCc3ncn(C)n3)cc12 [Example 61, (1R,3S,5R)-2-{2-[3-Acetyl-5-(1-methyl-1H-[1,2,4]triazol-3-ylmethoxy)-indazol-1-yl]-acetyl}-2-aza-bicyclo[3.1.0]hexane-3-carboxylic acid [(R)-1-((R)-2,2-dichloro-cyclopropyl)-ethyl]-amide]",3 nM
7,"CC(=O)c1nn(CC(=O)N2[C@@H]3C[C@@H]3C[C@H]2C(=O)N[C@@H](C)C2CCCCC2)c2cnccc12 [Example 5, (1R,3S,5R)-2-[2-(3-Acetyl-pyrazolo[3,4-c]pyridin-1-yl)-acetyl]-2-aza-bicyclo[3.1.0] hexane-3-carboxylic acid ((S)-1-cyclohexyl-ethyl)-amide]",5250 nM
8,"CCC1(CC)CC1CNC(=O)[C@@H]1C[C@H]2C[C@H]2N1C(=O)Cn1nc(C(C)=O)c2cccnc21 (stereo partly drawn) [Example 10, (1R,3S,5R)-2-[2-(3-Acetyl-pyrazolo[3,4-b]pyridin-1-yl)-acetyl]-2-aza-bicyclo[3.1.0] hexane-3-carboxylic acid (2,2-diethyl-cyclopropylmethyl)-amide]",1420 nM
9,"CC1(C)[C@H](CNC(=O)[C@@H]2C[C@H]3C[C@H]3N2C(=O)Cn2nc(C(N)=O)c3ccccc32)C1(Cl)Cl [Example 107, 1-(2-{(1R,3S,5R)-3-[((R)-2,2-Dichloro-3,3-dimethyl-cyclopropylmethyl)-carbamoyl]-2-aza-bicyclo[3.1.0]hex-2-yl}-2-oxo-ethyl)-1H-indazole-3-carboxylic acid amide]",52 nM
10,"CC(=O)c1nn(CC(=O)N2[C@@H]3C[C@@H]3C[C@H]2C(=O)NCC2CCCCC2F)c2cnccc12 (mixture of isomers) [Example 16, (1R,3S,5R)-2-[2-(3-Acetyl-pyrazolo[3,4-c]pyridin-1-yl)-acetyl]-2-aza-bicyclo[3.1.0] hexane-3-carboxylic acid (2-fluoro-cyclohexylmethyl)-amide (mixture of 4 diastereomers)]",174 nM
11,"CC(=O)c1nn(CC(=O)N2[C@@H]3C[C@@H]3C[C@H]2C(=O)NC[C@H]2CC2(Cl)Cl)c2ccc(OCc3cscn3)cc12 [Example 105, (1R,3S,5R)-2-{2-[3-Acetyl-5-(thiazol-4-ylmethoxy)-indazol-1-yl]-acetyl}-2-aza-bicyclo[3.1.0]hexane-3-carboxylic acid ((R)-2,2-dichloro-cyclopropylmethyl)-amide]",14 nM
12,"CC(=O)c1nn(CC(=O)N2[C@@H]3C[C@@H]3C[C@H]2C(=O)NCC2CC2(C)C)c2ncccc12 (stereo partly drawn) [Example 12, (1R,3S,5R)-2-[2-(3-Acetyl-pyrazolo[3,4-b]pyridin-1-yl)-acetyl]-2-aza-bicyclo[3.1.0] hexane-3-carboxylic acid (2,2-dimethyl-cyclopropylmethyl)-amide]",1410 nM
13,"C[C@@H](NC(=O)[C@@H]1C[C@@]2(CO)C[C@H]2N1C(=O)Cn1nc(C(N)=O)c2ccccc21)[C@H]1CC1(Cl)Cl [Example 57, 1-(2-{(1R,3S,5S)-3-[(R)-1-((R)-2,2-Dichloro-cyclopropyl)-ethylcarbamoyl]-5-hydroxymethyl-2-aza-bicyclo[3.1.0]hex-2-yl}-2-oxo-ethyl)-1H-indazole-3-carboxylic acid amide]",17 nM
14,"CC(=O)c1nn(CC(=O)N2[C@@H]3C[C@@H]3C[C@H]2C(=O)NCC2CCCC2(C)C)c2cnccc12 (single isomer, unassigned; dia 2) [Example 20]",233 nM
15,"CC1CCCC1CNC(=O)[C@@H]1C[C@H]2C[C@H]2N1C(=O)Cn1nc(C(N)=O)c2ccncc21 (single isomer, unassigned; dia 4) [Example 88]",781 nM
16,"CC(=O)c1nn(CC(=O)N2[C@@H]3C[C@@H]3C[C@H]2C(=O)NCC2CC2(Cl)Cl)c2ncccc12 (stereo partly drawn) [Example 11, (1R,3S,5R)-2-[2-(3-Acetyl-pyrazolo[3,4-b]pyridin-1-yl)-acetyl]-2-aza-bicyclo[3.1.0] hexane-3-carboxylic acid (2,2-dichloro-cyclopropylmethyl)-amide]",163 nM
17,"Cc1cc2c(C(N)=O)nn(CC(=O)N3[C@@H]4C[C@@H]4C[C@H]3C(=O)N[C@H](C)[C@H]3CC3(Cl)Cl)c2c(C)n1 [Example 45, 1-(2-{(1R,3S,5R)-3-[(R)-1-((R)-2,2-Dichloro-cyclopropyl)-ethylcarbamoyl]-2-aza-bicycio[3.1.0]hex-2-yl}-2-oxo-ethyl)-5,7-dimethyl-1H-pyrazolo[3,4-c]pyridine-3-carboxylic acid amide]",43 nM

# Same assay, conditions: IC50, Factor D inhibition data using Method 1; recombinant human factor D 10 nM, substrate Z-Lys-thiobenzyl, fluorescence
row,SMILES,IC50
1,"CC(=O)c1nn(CC(=O)N2[C@@H]3C[C@@H]3C[C@H]2C(=O)N[C@H](C)[C@H]2CC2(Cl)Cl)c2ccc(OCc3ncccn3)cc12 [Example 32, (1R,3S,5R)-2-{2-[3-Acetyl-5-(pyrimidin-2-ylmethoxy)-indazol-1-yl]-acetyl}-2-aza-bicyclo[3.1.0]hexane-3-carboxylic acid [(R)-1-((R)-2,2-dichloro-cyclopropyl)-ethyl]-amide-Dia 1]",6 nM
2,"CC(=O)c1nn(CC(=O)N2[C@@H]3C[C@@H]3C[C@H]2C(=O)NCC2C(C)C2(Cl)Cl)c2ccc(OCc3ncccn3)cc12 (single isomer, unassigned; dia 2) [Example 76, (1R,3S,5R)-2-{2-[3-Acetyl-5-(pyrimidin-2-ylmethoxy)-indazol-1-yl]-acetyl}-2-aza-bicyclo[3.1.0] hexane-3-carboxylic acid ((1R,3R) or (1S,3S)-2,2-dichloro-3-methyl-cyclopropylmethyl)-amide-Dia 2]",3 nM
